The values that follow come from ChEMBL document CHEMBL1139425, “Characterization of the binding properties of SIRT2 inhibitors with a N-(3-phenylpropenoyl)-glycine tryptamide backbone” (Bioorg Med Chem, 2008).

A word on the inhibition: it is the drop in the measured response relative to a control, in per cent. As a reminder, the IC50 is the concentration that gives 50% inhibition.

Test [1] addresses T1, NAD-dependent protein deacetylase sirtuin-2 (Homo sapiens) (UniProt Q8IXJ6).
T1 sequence (whole entry): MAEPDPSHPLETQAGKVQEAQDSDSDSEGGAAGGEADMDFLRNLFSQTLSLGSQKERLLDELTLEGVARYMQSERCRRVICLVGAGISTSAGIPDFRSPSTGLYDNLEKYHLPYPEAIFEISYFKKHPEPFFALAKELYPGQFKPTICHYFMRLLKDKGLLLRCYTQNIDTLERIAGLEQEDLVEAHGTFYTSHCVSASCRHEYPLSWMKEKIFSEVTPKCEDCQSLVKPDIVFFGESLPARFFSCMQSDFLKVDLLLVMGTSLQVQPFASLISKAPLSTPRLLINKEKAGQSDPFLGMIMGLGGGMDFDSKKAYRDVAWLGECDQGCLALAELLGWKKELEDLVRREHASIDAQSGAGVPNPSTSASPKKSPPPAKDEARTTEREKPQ
Kind of test: Inhibition of recombinant GST-tagged SIRT2 at 200 uM by Fluor de Lys fluorescence assay.

The target of test [2] is T2, NAD-dependent protein deacetylase sirtuin-2 (Homo sapiens, UniProt Q8IXJ6).
T2 sequence (Q8IXJ6 whole entry): T1 sequence (whole entry)
As to the kind of experiment: Inhibition of recombinant GST-tagged SIRT2 by Fluor de Lys fluorescence assay.

Consider `O=C(NCCc1c[nH]c2ccc(OCc3ccccc3)cc12)[C@@H]1CCCN1C(=O)CCc1ccccc1`, for which, in test [1], the inhibition is 29.8%. Consider `CC(C)(NC(=O)/C=C/c1cccc([N+](=O)[O-])c1)C(=O)NCCc1c[nH]c2ccccc12`, for which the inhibition in test [1] was 42.1%.

Take `O=C(CCc1ccccc1)NCCc1c[nH]c2ccccc12`: the inhibition in test [1] stood at 44.1%. Regarding `O=C(/C=C/c1ccccc1)NCCc1c[nH]c2ccccc12`, in test [1], the inhibition came to 58%. For the same compound, the IC50 in test [2] came out at 173 µM. On to `O=C(NCCc1c[nH]c2ccccc12)[C@@H]1CCCN1C(=O)/C=C/c1ccccc1`, for which the inhibition in test [1] is 36.6%. The same measure, in the same setting: to `O=C(/C=C/c1ccccc1)NCC(=O)NCCc1c[nH]c2ccccc12` belongs 22.7%; to `COc1cccc(/C=C/C(=O)NC(C)(C)C(=O)NCCc2c[nH]c3ccccc23)c1`, 45.9%; to `O=C(/C=C/c1ccccc1)NCC(=O)NCCc1c[nH]c2ccc(OCc3ccccc3)cc12`, 32.9%. With `CC(C)(NC(=O)/C=C/c1ccccc1)C(=O)NCCc1c[nH]c2ccccc12`, the inhibition in test [1] was found to be 49.5%. Also, the IC50 in test [2] is 100 µM. Consider `C[C@H](NC(=O)/C=C/c1ccccc1)C(=O)NCCc1c[nH]c2ccc(OCc3ccccc3)cc12`, for which, in test [1], the inhibition was 43.7%. For the compound `O=C(/C=C/c1ccc(O)cc1)NCCc1c[nH]c2ccccc12`, the inhibition in test [1] was determined as 44.3%. On the same count and under the same terms, to `CC(C)(NC(=O)CCc1ccccc1)C(=O)NCCc1c[nH]c2ccccc12` belongs 12.5%. In the case of `COc1ccccc1/C=C/C(=O)NC(C)(C)C(=O)NCCc1c[nH]c2ccccc12`, the inhibition in test [1] is 35%.

Consider `CC(C)(NC(=O)CCc1ccc(O)cc1)C(=O)NCCc1c[nH]c2ccccc12`, for which, in test [1], the inhibition amounted to 19.5%. For the compound `C[C@H](NC(=O)CCc1ccccc1)C(=O)NCCc1c[nH]c2ccc(OCc3ccccc3)cc12`, in test [1], the inhibition is 50.2%. In test [2], the IC50 is 86 µM. `C[C@H](NC(=O)/C=C/c1ccccc1)C(=O)NCCc1ccccc1`: in test [1], the inhibition worked out at 29.6%.

For the compound `COc1ccc2[nH]cc(CCNC(=O)CNC(=O)/C=C/c3ccccc3)c2c1`, in test [1], the inhibition was 24.2%.

In the case of `CC(C)(NC(=O)/C=C/c1ccc(O)cc1)C(=O)NCCc1cccnc1`, in test [1], the inhibition was found to be 2%. As to `CC(C)(NC(=O)/C=C/c1cccc(O)c1)C(=O)NCCc1c[nH]c2ccccc12`, the inhibition in test [1] amounted to 46.7%. In the case of `C[C@H](NC(=O)/C=C/c1ccccc1)C(=O)NCCc1c[nH]c2ccccc12`, the inhibition in test [1] turned out to be 59.6%. The IC50 in test [2] is 109 µM. Consider `CC(C)(NC(=O)/C=C/c1ccc(F)cc1)C(=O)NCCc1c[nH]c2ccccc12`, for which the inhibition in test [1] was determined as 61.3%. For the same compound, the IC50 in test [2] is 105 µM.
